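Interpolation was linear, between the two tested concentrations surrounding the appropriate level; five concentrations were tested over 48 hours in 96-well plates. GI50 marks 50% less growth. TGI denotes the concentration required for complete inhibition of growth.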
Experiments:
Assay in all cases: NCI tumour cell line growth inhibition, 48 h; in the data active = GI50 below about 0.43 µM; inactive = the rest
786-0 renal = tested on: 786-0 renal
A498 renal = tested on: A498 renal
A549 NSCLC = tested on: A549 NSCLC
ACHN renal = tested on: ACHN renal
BT-549 breast = tested on: BT-549 breast
CAKI-1 renal = tested on: CAKI-1 renal
CCRF-CEM leukemia = tested on: CCRF-CEM leukemia
COLO 205 colon = tested on: COLO 205 colon
DU-145 prostate = tested on: DU-145 prostate
EKVX NSCLC = tested on: EKVX NSCLC
HCC-2998 colon = tested on: HCC-2998 colon
HCT-116 colon = tested on: HCT-116 colon
HCT-15 colon = tested on: HCT-15 colon
HL-60(TB) leukemia = tested on: HL-60(TB) leukemia
HOP-62 NSCLC = tested on: HOP-62 NSCLC
HOP-92 NSCLC = tested on: HOP-92 NSCLC
HS 578T breast = tested on: HS 578T breast
HT29 colon = tested on: HT29 colon
IGROV1 ovarian = tested on: IGROV1 ovarian
K-562 leukemia = tested on: K-562 leukemia
KM12 colon = tested on: KM12 colon
LOX IMVI melanoma = tested on: LOX IMVI melanoma
M14 melanoma = tested on: M14 melanoma
MALME-3M melanoma = tested on: MALME-3M melanoma
MCF7 breast = tested on: MCF7 breast
MDA-MB-231 breast = tested on: MDA-MB-231 breast
MDA-MB-435 = tested on: MDA-MB-435
MOLT-4 leukemia = tested on: MOLT-4 leukemia
NCI-H226 lung = tested on: NCI-H226 lung
NCI-H23 lung = tested on: NCI-H23 lung
NCI-H460 lung = tested on: NCI-H460 lung
NCI-H522 lung = tested on: NCI-H522 lung
NCI/ADR-RES ovarian = tested on: NCI/ADR-RES ovarian
OVCAR-3 ovarian = tested on: OVCAR-3 ovarian
OVCAR-4 ovarian = tested on: OVCAR-4 ovarian
OVCAR-5 ovarian = tested on: OVCAR-5 ovarian
OVCAR-8 ovarian = tested on: OVCAR-8 ovarian
PC-3 prostate = tested on: PC-3 prostate
RPMI-8226 leukemia = tested on: RPMI-8226 leukemia
SF-268 CNS = tested on: SF-268 CNS
SF-295 CNS = tested on: SF-295 CNS
SF-539 CNS = tested on: SF-539 CNS
SK-MEL-2 melanoma = tested on: SK-MEL-2 melanoma
SK-MEL-28 melanoma = tested on: SK-MEL-28 melanoma
SK-MEL-5 melanoma = tested on: SK-MEL-5 melanoma
SK-OV-3 ovarian = tested on: SK-OV-3 ovarian
SN12C renal = tested on: SN12C renal
SNB-19 CNS = tested on: SNB-19 CNS
SNB-75 CNS = tested on: SNB-75 CNS
SR leukemia = tested on: SR leukemia
SW-620 colon = tested on: SW-620 colon
T-47D breast = tested on: T-47D breast
TK-10 renal = tested on: TK-10 renal
U251 CNS = tested on: U251 CNS
UACC-257 melanoma = tested on: UACC-257 melanoma
UACC-62 melanoma = tested on: UACC-62 melanoma
UO-31 renal = tested on: UO-31 renal

CCN(CC)CCOc1ccc(C(=C(c2ccccc2)C2CCCC2)c2ccc(OCCN(CC)CC)cc2)cc1
11.1 µM: TGI (UACC-62 melanoma)
10.4 µM: TGI (HT29 colon)
14.7 µM: TGI (LOX IMVI melanoma)
7.66 µM: TGI (IGROV1 ovarian)
15.6 µM: TGI (MDA-MB-231 breast)
inactive: GI50 (786-0 renal) 12.2 µM | GI50 (A498 renal) > 16.3 µM | GI50 (A549 NSCLC) 6.46 µM | GI50 (ACHN renal) > 16.3 µM | GI50 (BT-549 breast) 2.27 µM | GI50 (CAKI-1 renal) > 16.3 µM | GI50 (CCRF-CEM leukemia) 4.52 µM | GI50 (COLO 205 colon) 3.2 µM | GI50 (DU-145 prostate) 7.97 µM | GI50 (EKVX NSCLC) 7.53 µM | GI50 (HCC-2998 colon) 4.62 µM | GI50 (HCT-116 colon) 4.89 µM | GI50 (HCT-15 colon) > 16.3 µM | GI50 (HL-60(TB) leukemia) 3.13 µM | GI50 (HOP-62 NSCLC) 9.41 µM | GI50 (HOP-92 NSCLC) 1.33 µM | GI50 (HS 578T breast) 3.64 µM | GI50 (HT29 colon) 3.82 µM | GI50 (IGROV1 ovarian) 3.49 µM | GI50 (K-562 leukemia) 5.57 µM | GI50 (KM12 colon) 2.81 µM | GI50 (LOX IMVI melanoma) 4.45 µM | GI50 (M14 melanoma) 7.22 µM | GI50 (MALME-3M melanoma) 3.57 µM | GI50 (MCF7 breast) 2.53 µM | GI50 (MDA-MB-231 breast) 4.57 µM | GI50 (MDA-MB-435) 3.19 µM | GI50 (MOLT-4 leukemia) 4.47 µM | GI50 (NCI-H226 lung) 6.58 µM | GI50 (NCI-H23 lung) 5.64 µM | GI50 (NCI-H460 lung) 4.84 µM | GI50 (NCI-H522 lung) 6.3 µM | GI50 (NCI/ADR-RES ovarian) > 16.3 µM | GI50 (OVCAR-3 ovarian) 3.07 µM | GI50 (OVCAR-4 ovarian) 5.35 µM | GI50 (OVCAR-5 ovarian) 6.13 µM | GI50 (OVCAR-8 ovarian) 6.88 µM | GI50 (PC-3 prostate) 6.16 µM | GI50 (RPMI-8226 leukemia) 2.77 µM | GI50 (SF-268 CNS) 5.35 µM | GI50 (SF-295 CNS) 5.77 µM | GI50 (SF-539 CNS) 5.51 µM | GI50 (SK-MEL-2 melanoma) 5.49 µM | GI50 (SK-MEL-28 melanoma) 6.5 µM | GI50 (SK-MEL-5 melanoma) 5.31 µM | GI50 (SK-OV-3 ovarian) 7.95 µM | GI50 (SN12C renal) 5.28 µM | GI50 (SNB-19 CNS) 4.96 µM | GI50 (SNB-75 CNS) 4.58 µM | GI50 (SR leukemia) 3.29 µM | GI50 (SW-620 colon) 5.05 µM | GI50 (T-47D breast) 5.6 µM | GI50 (TK-10 renal) > 16.3 µM | GI50 (U251 CNS) 3.85 µM | GI50 (UACC-257 melanoma) 5.09 µM | GI50 (UACC-62 melanoma) 3.92 µM | GI50 (UO-31 renal) > 16.3 µM
> 16.3 µM: TGI (786-0 renal) | TGI (A498 renal) | TGI (A549 NSCLC) | TGI (ACHN renal) | TGI (CAKI-1 renal) | TGI (CCRF-CEM leukemia) | TGI (DU-145 prostate) | TGI (EKVX NSCLC) | TGI (HCC-2998 colon) | TGI (HCT-116 colon) | TGI (HCT-15 colon) | TGI (HOP-62 NSCLC) | TGI (K-562 leukemia) | TGI (M14 melanoma) | TGI (NCI-H226 lung) | TGI (NCI-H23 lung) | TGI (NCI-H460 lung) | TGI (NCI-H522 lung) | TGI (NCI/ADR-RES ovarian) | TGI (OVCAR-4 ovarian) | TGI (OVCAR-5 ovarian) | TGI (OVCAR-8 ovarian) | TGI (PC-3 prostate) | TGI (SF-268 CNS) | TGI (SF-295 CNS) | TGI (SF-539 CNS) | TGI (SK-MEL-2 melanoma) | TGI (SK-MEL-28 melanoma) | TGI (SK-MEL-5 melanoma) | TGI (SK-OV-3 ovarian) | TGI (SN12C renal) | TGI (SNB-19 CNS) | TGI (SNB-75 CNS) | TGI (SW-620 colon) | TGI (T-47D breast) | TGI (TK-10 renal) | TGI (UACC-257 melanoma) | TGI (UO-31 renal)
7.63 µM: TGI (COLO 205 colon)
12.5 µM: TGI (U251 CNS)
5.28 µM: TGI (KM12 colon)
7.88 µM: TGI (SR leukemia)
10.3 µM: TGI (MALME-3M melanoma)
10.7 µM: TGI (RPMI-8226 leukemia)
7.14 µM: TGI (HL-60(TB) leukemia)
6.89 µM: TGI (HOP-92 NSCLC)
12.8 µM: TGI (HS 578T breast)
5.01 µM: TGI (MCF7 breast)
7.45 µM: TGI (MDA-MB-435)
13.3 µM: TGI (MOLT-4 leukemia)
6.54 µM: TGI (OVCAR-3 ovarian)
6.04 µM: TGI (BT-549 breast)

Source: PubChem BioAssay (NCI)
